The nature of series [1]: In vitro stability of peptides in 20% rat serum. The series is classed as in vitro ADME. Particulars: 37 °C, peptide 0.5 mg/mL, incubation up to 12 h, RP-HPLC C18, UV 214 nm, triplicate. As to the method:
The L-FP21 and D-FP21 peptides were diluted to 0.5 mg/mL and incubated at 37 °C for 12 h for the biostability test against 20% rat serum. At predetermined time intervals, 100 μL of the sample was removed and analyzed using reverse-phase high-performance liquid chromatography (HPLC; Waters Acquity H-Class Bio, Waters Co. Ltd., Milford, MA) on a bridged ethylene hybrid (BEH) C18 column (2.1 mm ×50 mm, 1.7 μm) using a gradient method. The mobile phase A was purified water containing 0.1% (v/v) formic acid (FA). The mobile phase B was acetonitrile containing 0.1% FA. The 30-min linear elution gradient ran from 5% B to 45% B in […] at a flow rate of 0.6 mL/min with a detection wavelength of 214 nm. We used aminopeptidase to further investigate the stability of L-FP21 or D-FP21 in proteolytic enzymes. The aminopeptidase was added with a final concentration of 1 μg/mL. The peptides were then analyzed as described above. All the experiments were performed in triplicate.

Series [2] has as its target T1, Aminopeptidase M (leucine aminopeptidase, microsomal from porcine kidney) (Sus scrofa, UniProt P15145).
T1 construct: purchased Sigma-Aldrich; host or cells: porcine kidney microsomes (tissue-derived)
T1 sequence (P15145 1-963): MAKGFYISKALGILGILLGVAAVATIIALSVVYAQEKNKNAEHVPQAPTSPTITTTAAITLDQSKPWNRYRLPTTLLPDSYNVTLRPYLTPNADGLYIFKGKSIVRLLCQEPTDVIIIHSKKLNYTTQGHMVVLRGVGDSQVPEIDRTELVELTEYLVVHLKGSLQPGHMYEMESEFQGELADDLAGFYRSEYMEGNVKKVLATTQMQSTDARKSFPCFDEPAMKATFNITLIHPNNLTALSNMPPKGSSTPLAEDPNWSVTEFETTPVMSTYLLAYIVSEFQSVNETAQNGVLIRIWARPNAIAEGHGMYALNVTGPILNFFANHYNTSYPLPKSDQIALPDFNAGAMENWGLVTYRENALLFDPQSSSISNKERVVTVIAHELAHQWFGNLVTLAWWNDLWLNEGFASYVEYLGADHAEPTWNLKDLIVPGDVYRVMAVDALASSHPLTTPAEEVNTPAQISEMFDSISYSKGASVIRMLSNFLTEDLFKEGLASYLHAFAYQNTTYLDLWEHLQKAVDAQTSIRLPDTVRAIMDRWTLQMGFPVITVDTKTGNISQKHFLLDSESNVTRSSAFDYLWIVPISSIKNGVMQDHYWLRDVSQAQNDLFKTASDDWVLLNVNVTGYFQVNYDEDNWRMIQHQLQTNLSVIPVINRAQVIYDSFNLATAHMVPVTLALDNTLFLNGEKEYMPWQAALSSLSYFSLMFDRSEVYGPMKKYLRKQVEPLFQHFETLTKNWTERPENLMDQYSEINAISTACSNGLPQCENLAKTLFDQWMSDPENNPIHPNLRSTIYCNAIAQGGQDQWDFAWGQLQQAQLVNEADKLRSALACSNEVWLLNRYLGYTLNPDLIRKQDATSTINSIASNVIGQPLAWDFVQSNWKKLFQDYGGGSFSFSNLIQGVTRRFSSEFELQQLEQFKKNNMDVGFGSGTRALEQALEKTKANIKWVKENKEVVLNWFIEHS
Kind of series: In vitro stability of peptides against aminopeptidase M. The series is classed as in vitro ADME. Particulars: aminopeptidase M 1 μg/mL, 37 °C, peptide 0.5 mg/mL, incubation up to 12 h, RP-HPLC C18, UV 214 nm, triplicate. From the text: L-FP21, D-FP21, Rhodamine-L-FP21, and Rhodamine-D-FP21 were purchased from ChinaPeptides (Shanghai, China) (Figure S3). Rat serum was obtained from Jianlun Biology Technology Co. (Guangzhou, China). Aminopeptidase M (leucine aminopeptidase, microsomal from porcine kidney Type VI − S, lyophilized powder, EC 3.4.11.2) and the Endotoxin-free Plasmid Maxiprep Kit used to purify the plasmid DNA before application were obtained from Sigma–Aldrich (USA). Cell Counting Kit-8 (CCK-8 Kit) was purchased from Beyotime Biotechnology (Tianjing, China). Odyssey Blocking Buffer was obtained from LI-COR Biosciences (Lincoln, Nebraska, USA). The plasmids encoding enhanced green fluorescence protein (EGFP; pEGFP-N) were purchased from KeyGEN BioTECH (Nanjing, China). The vector construction of GRO-α shRNA was pcDNA6.2-GW/Emgfp-miR (Invitrogen, Carlsbad, CA), and the target knockdown gene encoding was TGGTTTT GGCCACTG. […]
The L-FP21 and D-FP21 peptides were diluted to 0.5 mg/mL and incubated at 37 °C for 12 h for the biostability test against 20% rat serum. At predetermined time intervals, 100 μL of the sample was removed and analyzed using reverse-phase high-performance liquid chromatography (HPLC; Waters Acquity H-Class Bio, Waters Co. Ltd., Milford, MA) on a bridged ethylene hybrid (BEH) C18 column (2.1 mm ×50 mm, 1.7 μm) using a gradient method. […] The peptides were then analyzed as described above. […]

Where no end group is shown, it is not given here.

Turning to YTRDLVYGDPARPGIQGTGTF [L-FP21], the “time to complete degradation in rat serum” value in series [1] was ≤ 2 h. Besides, in series [2], the “time to complete degradation in aminopeptidase” value is reported as ≤ 6 h.

Values taken from PMC6058519, “Retro-inverso follicle-stimulating hormone peptide-mediated polyethylenimine complexes for targeted ovarian cancer gene therapy” (Drug Delivery, 2018).
